Patent publication US7005416B2, “Dalfopristine/quinupristine combinations with cefpirome” (Jones Pharma Incorporated, priority 2000, dated 2006)
≈ marks a conversion by molar mass, not a printed value.

Assays:
[1] = tested on: MRSA strain P8; experiment: Growth of bacterial populations on cefpirome-containing plates, with or without subinhibitory dalfopristine/quinupristine, strain P8; type: cell-based, Staphylococcus aureus
Experimental: (§1) The study in vitro and the determination of the MICs (minimum inhibitory concentrations) was carried out using cultures on agar plates (Antimicrob. Agents Chemother., 39, 1419–1424 (1995), the disclosure of which is incorporated by reference herein).
(§2) Bacterial populations of the MRSA strains Ab 7 and P8 can grow on plates containing up to 60 mg/l of cefpirome.

[2] = tested on: MRSA strain P8 (C-MLSB-resistant); experiment: MIC determination on agar plates, MRSA strain P8; type: cell-based; details: Staphylococcus aureus, read-out: minimum inhibitory concentration (MIC)
Experimental: (§3) The microorganisms tested were two clinical isolates of C-MLSB-resistant MRSA: strains AW7 and P8, previously characterized in vitro, and in vivo in rat experimental endocarditis.
as §1

[3] = tested on: MRSA P8; experiment: Rat experimental aortic endocarditis, MRSA P8; type: in vivo, Wistar female rats; details: MRSA P8, 5 days treatment, FIG. 2; monotherapy P>0.05, combination P<0.05
Excerpt: (§4) For the experimental endocarditis study, Wistar female rats weighing 200 g with aortic vegetation (produced according to the method described by Heraief et al., Infect Immunol., 37,127–31 (1982), the disclosure of which is incorporated by reference herein) were infected with an inoculum of 10^5 CFU/ml of the organism to be tested, which corresponds to 10 times the minimum inoculum to produce endocarditis in at least 90% of the untreated controls (where CFU refers to colony forming units).
(§5) The treatment was started 12 hours after the bacterial infection, and was continued for 5 days. […]
(§6) The control rats were sacrificed at the start of the treatment and the treated rats were sacrificed 24 hours after the final antibiotic administration. The bacterial density in the vegetations was determined after dissecting the vegetations under sterile conditions, weighing, homogenizing in 1 ml of saline solution, and then diluting the solution (series of dilutions) before placing it onto plates for counting of the colonies. The number of colonies growing on the plates was determined after 48 hours of incubation at 35° C. The bacterial densities in the vegetations were expressed as log10 CFU/g of tissue. […]

[4] = tested on: MRSA strain AW7 (C-MLSB-resistant); experiment: MIC determination on agar plates, MRSA strain AW7; type: cell-based; details: Staphylococcus aureus, read-out: minimum inhibitory concentration (MIC)
Experimental: as §3, §1

[5] = in vivo; parameters: species or system rats; details: Wistar, rat, iv
Experimental: The treatment was started 12 hours after the bacterial infection, and was continued for 5 days. The antibiotics were administered by means of a permanent venous catheter with a programmable pump (Pump 44; Harvard Apparatus Inc.) according to the method described in Antimicrobial Agents Chemother., 39, 1419–1424 (1995), the disclosure of which is incorporated by reference herein. The treatments simulated kinetics in humans, which were produced by intravenous administration of 7 mg/kg of quinupristine/dalfopristine every 12 hours, or by intravenous administration of 2 g of cefpirome every 12 hours.
Prior to the treatment experiments, the setting up of the simulation of the human kinetics of the quinupristine/dalfopristine combination with cefpirome in rats was performed on animals that were catheterized, but not infected. In these preliminary experiments, each point of the pharmacokinetics curve is the mean (±standard deviation) of the concentrations measured in 6 different rats. The concentrations of product in the serum were measured in a bioassay (using Micrococcus luteus for quinupristine/dalfopristine, and Bacillus subtilis ATCC 6633 for cefpirome).
These values are in accordance with the therapeutic levels observed in humans for these active principles. […]

[6] = tested on: MRSA AW7; experiment: Rat experimental aortic endocarditis, MRSA AW7; type: in vivo, Wistar female rats
Excerpt: as §4, §5, §6

[7] = tested on: C-MLSB-resistant MRSA strains; experiment: Rat experimental endocarditis resulting from C-MLSB-resistant MRSA strains (overall statement); type: in vivo, rats; details: monotherapy
Experimental: Synercid® (quinupristine/dalfopristine) and cefpirome were tested separately in rats, on experimental endocarditis resulting from C-MLSB-resistant MRSA strains.
as §4, §5, §6

[8] = tested on: MRSA strain AW7; experiment: Growth of bacterial populations on cefpirome-containing plates, with or without subinhibitory dalfopristine/quinupristine, strain AW7; type: cell-based, Staphylococcus aureus
Experimental: as §1, §2

MIC [2]: 2 µg/mL (≈ 3.89 µM) | MIC [4]: 4 µg/mL (≈ 7.77 µM) | concentration at 5 min [5]: 161 ± 19.7 µg/mL | concentration at 12 h [5]: 2.2 ± 1.4 µg/mL
Structure (SMILES): CO/N=C(\C(=O)N[C@@H]1C(=O)N2C(C(=O)[O-])=C(C[n+]3cccc4c3CCC4)CS[C@H]12)c1csc(N)n1 [cefpirome]
cefpirome concentration in plates up to which bacterial populations can grow ([1]; MRSA strain P8, cefpirome alone): up to 60 mg/l | cefpirome concentration in plates at which the strain did not grow ([1]; MRSA strain P8, plates with subinhibitory (¼ MIC) dalfopristine/quinupristine combination added): ≥ 15 mg/L | effectiveness on aortic endocarditis (statistical significance) [3]: neither quinupristine/dalfopristine, nor cefpirome, in monotherapy were significantly effective | effectiveness on aortic endocarditis (statistical significance) ([6]; MRSA AW7, 5 days treatment, FIG. 2, monotherapy P>0.05, combination P<0.05): neither quinupristine/dalfopristine, nor cefpirome, in monotherapy were significantly effective | log10 CFU/g of vegetation ([6]; MRSA AW7, in 38% of the cases): >8.7 in 38% log10 CFU/g | effectiveness in vivo [7]: Neither Synercid® nor cefpirome showed any effectiveness in vivo in monotherapy | cefpirome concentration in plates up to which bacterial populations can grow ([8]; MRSA strain AW7 (printed Ab 7), cefpirome alone): up to 60 mg/l | cefpirome concentration in plates at which the strain did not grow ([8]; MRSA strain AW7, plates with subinhibitory (¼ MIC) dalfopristine/quinupristine combination added): ≥ 5 mg/L
